Measured values: US9101569B2, “Methods for the treatment of insulin resistance” (UNIVERSITE DE GENEVE, priority 2010, dated 2015)

Key:
HFD-induced obese rats [1] = test: Plasma measurements after i.c.v. OT infusion in HFD-induced obese rats; assay type: in vivo, rat
Experimental: (§1) After three weeks of HFD feeding, rats were submitted to surgical procedures. They were anesthetized with intramuscular injection of ketamine-xylasine (Ketalar®-Rompun®, Parke-Davis and Bayer, Leverkusen, Switzerland) at 40 and 9 mg/kg, respectively, and implanted with a cannula in the right lateral cerebral ventricle fixed on the skull with dental cement, as previously described (Rohner-Jeanrenaud et al., 1989, Endocrinology 124, 733-9). After one week of recovery, the drinking response to i.c.v. injection of Angiotensin II (5 ng/μl) (Novabiochem, Laüfelfingen, Switzerland) was measured to confirm the correct placement of the cannula. At the end of the fifth week of high fat diet feeding, osmotic minipumps (Alzet®, model 2001, Alza Corporation, Cupertino, Calif.) delivering oxytocin (NeoMPS®, Strasbourg, France) or its vehicle (NaCl 0.9%) were subcutaneously implanted and connected to the i.c.v. cannula via a polyethylene catheter, as previously described (Rohner-Jeanrenaud et al., 1989, above). OT was delivered at a dose of 1.6 nmol/day/rat or 16 nmol/day/rat during 14 days. A group of vehicle-infused rats was pair-fed to the amount of food consumed by OT-infused animals in order to assess the effects of OT independently from changes in food intake. The pair-feeding regimen consisted in giving one-third of the daily food amount in the morning and the remaining two-thirds just before onset of darkness. Rats were sacrificed using isoflurane anesthesia (Halocarbon Laboratories, River Edge, N.J.) and rapid decapitation between 09:00 and 13:00 h. Blood samples were collected into EDTA-coated tubes, centrifuged and plasma stored at −20° C. Tissues were rapidly removed, freeze-clamped, and stored at −80° C.
(§2) To determine the effect of OT on peripheral metabolism, levels of plasma glucose, insulin, leptin, FFA, glycerol and TG were determined. Plasma glucose was measured by the glucose oxidase method (Glu, Roche Diagnostics GmbH, Rotkreuz, Switzerland). Plasma non-esterified fatty acid (NEFA) and triglyceride (TG) levels were determined using NEFA C and TG enzymatic PAP150 commercial kits from Wako Chemicals GmbH (Neuss, Germany) and Biomérieux (Marcy l'Etoile, France), respectively. Plasma OT levels were determined using an ELISA, as previously described (Pequeux et al., 2001, Scand. J. Clin. Lab. Invest., 61, 407-415). Plasma glycerol levels were measured using the free Glycerol Reagent (Sigma).

[2] = as above; assay type: in vivo, rat; conditions: rat, plasma, 1.6 nmol/day/rat; i.c.v. OT 1.6 nmol/d, 14 days; mean ± SEM; read-out: plasma Oxytocin
Experimental: as §1, §2

HFD-induced obese rats [3] = test: HOMA-IR and euglycemic-hyperinsulinemic clamps after subcutaneous OT infusion; assay type: in vivo, rat; conditions: s.c. 50 nmol/day, 14 days
Experimental: Global and tissue-specific glucose utilization rates were measured by performing euglycemic-hyperinsulinemic clamps associated with the labeled 2-deoxyglucose technique as previously described (Vettor et al., 1994, Diabetologia, 37, 1202-1208). HFD-induced obese rats were overnight fasted and intraperitoneally anesthetized with Nembutal (75 mg/kg sodium pentobarbital; Abbott Laboratories, Chicago, Ill.). Total glucose utilization was measured during euglycemic-hyperinsulinemic clamps, as previously described (Vettor et al., 1994, above). At the end of the clamp, the in vivo insulin-stimulated glucose utilization index of individual tissues was determined by injecting a single bolus of labeled 2-deoxy-D-[1-3H]glucose (30 μCi; Amersham Biosciences UK, Little Chalfont, UK), as previously described (Vettor et al., 1994, above). […]
The beneficial effects of OT administration were assessed in the same rat model of high-fat diet induced obesity as in Example 1. […]
Insulinemia and glycemia were measured after an overnight fast before the euglycemic hyperinsulinemic clamps) and were used to calculate the “homeostasis model assessment of insulin resistance” (HOMA-IR). HOMA-IR was calculated as follows: (fasting serum insulin in mU/l)×(fasting blood glucose in mM)/22.5.
The effect of peripheral OT administration on high fat diet-induced insulin resistance was determined as described in Example 1.

HFD-induced obese rats [4] = test: Euglycemic-hyperinsulinemic clamps after i.c.v. OT infusion; assay type: in vivo, rat; conditions: 14-day i.c.v. 1.6 nmol/d
Experimental: Global and tissue-specific glucose utilization rates were measured by performing euglycemic-hyperinsulinemic clamps associated with the labeled 2-deoxyglucose technique as previously described (Vettor et al., 1994, Diabetologia, 37, 1202-1208). HFD-induced obese rats were overnight fasted and intraperitoneally anesthetized with Nembutal (75 mg/kg sodium pentobarbital; Abbott Laboratories, Chicago, Ill.). Total glucose utilization was measured during euglycemic-hyperinsulinemic clamps, as previously described (Vettor et al., 1994, above). At the end of the clamp, the in vivo insulin-stimulated glucose utilization index of individual tissues was determined by injecting a single bolus of labeled 2-deoxy-D-[1-3H]glucose (30 μCi; Amersham Biosciences UK, Little Chalfont, UK), as previously described (Vettor et al., 1994, above). Rats were killed by rapid decapitation, and tissues were rapidly removed, freeze-clamped, and stored at −80° C. Measurement of tissue concentration of 2-deoxy-d-[1-^3H]glucose-6-phosphate allowed calculation (Vettor et al., 1994, above) of the in vivo glucose utilization index of individual tissues and was expressed in ng/mg·min.

HFD-induced obese rats [5] = test: High-fat diet-induced obesity rat model, i.c.v. OT infusion: body weight gain and food intake; assay type: in vivo; conditions: 14 days, compared with saline
Experimental: The beneficial metabolic effects of OT administration were assayed in the following high-fat diet-induced obesity model in rats.
Male Wistar (300-325 g) rats were purchased from Charles River (L′Arbresle, France) and housed in individual cages under conditions of controlled temperature (22° C.) and illumination (light on: 07:00-19:00 h). They were allowed free access to water and a 45% high fat diet (HFD) (metabolized energy, 4.56 kcal/g) (Ssniff® EF R/M acc. D12451 (I) mod., ssniff Spezialdiaten GmbH, Soest, Germany) for seven weeks. Body weight, food intake and water intake were recorded daily (08:30-09:30 h). All procedures were approved by the Ethic Committee of our University and were in accordance with the Swiss guidelines for animal experimentation.
To study the role of OT on metabolic homeostasis, the above male Wistar rats were rendered obese by 7 weeks of HFD 45% and were intracerebroventricularly (i.c.v.) infused with either OT (1.6 nmol/d) or saline during the last 2 weeks of the experiment.
as §1

[6] = i.c.v. OT 1.6 nmol/d, 14 days, mean ± SEM
[7] = i.c.v. OT 1.6 nmol/d, 14 days, mean ± SEM, listed as Oxytocin

CC[C@H](C)[C@@H]1NC(=O)[C@H](Cc2ccc(O)cc2)NC(=O)[C@@H](N)CSSC[C@@H](C(=O)N2CCC[C@H]2C(=O)N[C@@H](CC(C)C)C(=O)NCC(N)=O)NC(=O)[C@H](CC(N)=O)NC(=O)[C@H](CCC(N)=O)NC1=O [OT, Cys-Tyr-Ile-Gln-Asn-Cys-Pro-Leu-Gly (SEQ ID NO: 1)]
plasma glycerol levels (HFD-induced obese rats [1]; central (i.c.v.) OT 1.6 nmol/day): increased | plasma 2-AG (HFD-induced obese rats [1]; [6]): 53 ± 4.9 pmol/mL | plasma AEA (HFD-induced obese rats [1]; [6]): 19 ± 2.3 pmol/mL | plasma FFA (HFD-induced obese rats [1]; [6]): unchanged | plasma Glucose (HFD-induced obese rats [1]; [6]): unchanged | plasma Insulin (HFD-induced obese rats [1]; [6]): unchanged | plasma Leptin (HFD-induced obese rats [1]; [6]): unchanged | plasma OEA (HFD-induced obese rats [1]; [6]): 178 ± 15 pmol/mL | plasma Oxytocin (HFD-induced obese rats [1]; [6]): increased | plasma PEA (HFD-induced obese rats [1]; [6]): 1.63 ± 0.15 nmol/mL | plasma TG (HFD-induced obese rats [1]; [6]): decreased | plasma FFA (HFD-induced obese rats [1]; [7]): 0.70 ± 0.06 mmol/L | plasma Glucose (HFD-induced obese rats [1]; [7]): 159.5 ± 4.1 mg/dL | plasma Insulin (HFD-induced obese rats [1]; [7]): 1.7 ± 0.3 ng/mL | plasma Leptin (HFD-induced obese rats [1]; [7]): 11.3 ± 2.2 ng/mL | plasma TG (HFD-induced obese rats [1]; [7]): 0.80 ± 0.05 mmol/L | level at 336 h [2]: 0.0218 ± 0.0058 ng/mL | glucose infusion rate (GIR) (HFD-induced obese rats [3]): significantly increased | HOMA-IR (HFD-induced obese rats [3]; compared to saline, not observed in pair-fed group): lower | glucose uptake in epididymal WAT (HFD-induced obese rats [4]): significant increase | glucose uptake in inguinal WAT (HFD-induced obese rats [4]): significant increase | glucose infusion rate (GIR) (HFD-induced obese rats [4]; compared to saline): significant increases | glucose utilization index, red gastrocnemius (HFD-induced obese rats [4]; compared to saline): significant increases | glucose utilization index, red quadriceps (HFD-induced obese rats [4]; compared to saline): significant increases | glucose utilization index, soleus (HFD-induced obese rats [4]; compared to saline): significant increases | cumulative body weight gain (HFD-induced obese rats [5]; i.c.v. 1.6 nmol/d): more than fifty percent decrease | cumulative food intake (HFD-induced obese rats [5]; i.c.v. 1.6 nmol/d): without any effect | food efficiency (ratio of body weight gain to cumulative food intake) (HFD-induced obese rats [5]; i.c.v. 1.6 nmol/d): marked decrease | cumulative food intake (HFD-induced obese rats [5]; i.c.v. 16 nmol/d): decreased | body weight gain (HFD-induced obese rats [5]; i.c.v. 16 nmol/d, not observed in pair-fed group): significantly lower
